“Also recorded” adds a separate entry of the source. Read-outs that look alike come from different tables or passages of the source.
Molecular target: T1, MMP-2 (Homo sapiens, UniProt P08253)
T1 construct: purchased Sino Biological 10082-HNAH
T1 sequence (P08253 110-660): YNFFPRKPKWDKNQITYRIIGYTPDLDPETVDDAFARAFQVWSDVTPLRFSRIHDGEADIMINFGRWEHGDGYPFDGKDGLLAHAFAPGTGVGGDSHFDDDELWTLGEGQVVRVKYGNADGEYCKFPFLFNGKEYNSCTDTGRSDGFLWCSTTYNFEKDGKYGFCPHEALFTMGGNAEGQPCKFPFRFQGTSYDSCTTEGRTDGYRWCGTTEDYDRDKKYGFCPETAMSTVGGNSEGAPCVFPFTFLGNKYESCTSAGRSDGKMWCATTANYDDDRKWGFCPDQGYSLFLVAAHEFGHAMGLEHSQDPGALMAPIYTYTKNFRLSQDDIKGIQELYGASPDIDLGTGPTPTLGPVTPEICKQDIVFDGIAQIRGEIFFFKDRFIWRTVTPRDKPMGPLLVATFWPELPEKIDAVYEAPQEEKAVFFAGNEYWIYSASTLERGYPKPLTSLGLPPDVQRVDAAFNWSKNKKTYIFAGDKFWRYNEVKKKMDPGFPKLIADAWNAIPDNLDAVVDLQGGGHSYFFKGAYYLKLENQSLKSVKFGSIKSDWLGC
Assay: MMP-2 inhibition assay (fluorogenic peptide substrate)
Type: biochemical
Conditions: for remaining activity at 0.0156098 µM: fragment concentration 0.0156098 µM; for remaining activity at 0.0780488 µM: fragment concentration 0.0780488 µM; for remaining activity at 0.390244 µM: fragment concentration 0.390244 µM; for remaining activity at 1.95122 µM: fragment concentration 1.95122 µM; for remaining activity at 9.7561 µM: fragment concentration 9.7561 µM; for remaining activity at 48.7805 µM: fragment concentration 48.7805 µM; for remaining activity at 243.902 µM: fragment concentration 243.902 µM; for inhibitory effect: in words; for IC50: mean ± SE, n.d: not detected, Fig. 5d unit inferred, µM, read-out: IC50; for remaining activity at 9.75 µM: concentration 9.75 µM; for remaining activity at 48.76 µM: concentration 48.76 µM; for remaining activity at 243.8 µM: concentration 243.80 µM
In short: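 Hydrolysis of DNP-Pro-Leu-Gly-Met-Trp-Ser-Arg (25 μM final) was tracked kinetically at em 360 nm over 30 min. Enzymes, APMA-activated and at 10 nM (MMP-9) or 6.5 nM (MMP-2) final, sat 30 min at RT with inhibitor in pH 7.5 Tris buffer with CaCl2 and Brij 35 first. Logistic fitting of Vmax against concentration gave IC50, in triplicate.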

[1] = Figure 5a, read-out: Normalized activity (Mean)
[2] = Figure 5a, fragment concentration 1219.51 µM, read-out: Normalized activity (Mean)
[3] = MMP-2, concentration 0.0156 µM, read-out: Mean (dose-response, Supplementary fig 17)
[4] = MMP-2, concentration 0.08 µM, read-out: Mean (dose-response, Supplementary fig 17)
[5] = MMP-2, concentration 0.39 µM, read-out: Mean (dose-response, Supplementary fig 17)
[6] = MMP-2, concentration 1.95 µM, read-out: Mean (dose-response, Supplementary fig 17)
[7] = MMP-2, concentration 9.76 µM, read-out: Mean (dose-response, Supplementary fig 17)
[8] = MMP-2, concentration 48.78 µM, read-out: Mean (dose-response, Supplementary fig 17)
[9] = MMP-2, concentration 243.90 µM, read-out: Mean (dose-response, Supplementary fig 17)
[10] = MMP-2, concentration 1219.51 µM, read-out: Mean (dose-response, Supplementary fig 17)
[11] = MMP-2, concentration 0.08 µM, read-out: Mean (MMP-2, Supplementary fig 16)
[12] = MMP-2, concentration 0.0156 µM, read-out: Mean (MMP-2 dose-response, Supplementary fig 15)
[13] = MMP-2, concentration 0.08 µM, read-out: Mean (MMP-2 dose-response, Supplementary fig 15)
[14] = MMP-2, concentration 0.39 µM, read-out: Mean (MMP-2 dose-response, Supplementary fig 15)
[15] = MMP-2, concentration 1.95 µM, read-out: Mean (MMP-2 dose-response, Supplementary fig 15)
[16] = MMP-2, read-out: Mean (MMP-2 dose-response, Supplementary fig 15)

remaining activity at 0.0156098 µM [1] [%] | remaining activity at 0.0780488 µM [1] [%] | remaining activity at 0.390244 µM [1] [%] | remaining activity at 1.95122 µM [1] [%] | remaining activity at 9.7561 µM [1] [%] | remaining activity at 48.7805 µM [1] [%] | remaining activity at 243.902 µM [1] [%] | remaining activity at 1219.51 µM [2] [%] | remaining activity at 0.0156 µM [3] [%] | remaining activity at 0.08 µM [4] [%] | remaining activity at 0.39 µM [5] [%] | remaining activity at 1.95 µM [6] [%] | remaining activity at 9.76 µM [7] [%] | remaining activity at 48.78 µM [8] [%] | remaining activity at 243.9 µM [9] [%] | remaining activity at 1219.51 µM [10] [%] | remaining activity at 0.08 µM [11] [%] | IC50 [µM] | remaining activity at 0.0156 µM [12] [%] | SMILES | inhibitory effect | also measured
92.7 | 95.8 | 93.9 | 110 | 93.7 | 92.7 | 92.2 | 85.5 | 92.7 | 95.8 | 93.9 | 110 | 93.7 | 92.7 | 92.2 | 85.5 |  |  |  | O=C(O)CNC(=O)NC12CC3CC(CC(C3)C1)C2 [Compound 66] | No inhibitory effects could be measured; also recorded: did not exhibit meaningful activity | 
 |  |  |  |  |  |  |  |  |  |  |  |  |  |  |  | 97.1 | 95.8 |  | O=C(O)Cn1cnc2c(oc3ccccc32)c1=O [Compound 182] |  | remaining activity at 0.0152381 µM (Figure 5a, fragment concentration 0.0152381 µM, read-out: Normalized activity (Mean)): 97.3%; remaining activity at 0.0761905 µM (Figure 5a, fragment concentration 0.0761905 µM, read-out: Normalized activity (Mean)): 97.1%; remaining activity at 0.380952 µM (Figure 5a, fragment concentration 0.380952 µM, read-out: Normalized activity (Mean)): 98.7%; remaining activity at 1.90476 µM (Figure 5a, fragment concentration 1.90476 µM, read-out: Normalized activity (Mean)): 98.1%; remaining activity at 9.52381 µM (Figure 5a, fragment concentration 9.52381 µM, read-out: Normalized activity (Mean)): 87.4%; remaining activity at 47.619 µM (Figure 5a, fragment concentration 47.619 µM, read-out: Normalized activity (Mean)): 71.6%; remaining activity at 238.095 µM (Figure 5a, fragment concentration 238.095 µM, read-out: Normalized activity (Mean)): 16.9%; remaining activity at 1190.48 µM (Figure 5a, fragment concentration 1190.48 µM, read-out: Normalized activity (Mean)): 0%; remaining activity at 0.0152 µM (MMP-2, concentration 0.0152 µM, read-out: Mean (MMP-2, Supplementary fig 16)): 97.3%; remaining activity at 1.9 µM (MMP-2, concentration 1.90 µM, read-out: Mean (MMP-2, Supplementary fig 16)): 98.2%; remaining activity at 9.52 µM (MMP-2, concentration 9.52 µM, read-out: Mean (MMP-2, Supplementary fig 16)): 87.4%; remaining activity at 47.62 µM (MMP-2, concentration 47.62 µM, read-out: Mean (MMP-2, Supplementary fig 16)): 71.6%; remaining activity at 238.1 µM (MMP-2, concentration 238.10 µM, read-out: Mean (MMP-2, Supplementary fig 16)): 16.9%; remaining activity at 0.38 µM (MMP-2, concentration 0.38 µM, read-out: Mean (MMP-2, Supplementary fig 16)): 98.7%
93 | 96.4 | 90.7 | 92.4 | 83.6 | 70.5 | 41.9 | 5.76 |  |  |  |  |  |  |  |  |  | 169 ± 15.8 | 93 | Cc1cc(=O)[nH]c(-n2nc(C)c(CCC(=O)O)c2C)n1 [Compound 693] | high µM range | remaining activity at 0.08 µM [13]: 96.3%; remaining activity at 0.39 µM [14]: 90.7%; remaining activity at 1.95 µM [15]: 92.4%; remaining activity at 9.75 µM [16]: 83.6%; remaining activity at 9.76 µM (MMP-2, concentration 9.76 µM, read-out: Mean (MMP-2 dose-response, Supplementary fig 15)): 83.6%; remaining activity at 48.76 µM [16]: 70.5%; remaining activity at 48.78 µM (MMP-2, concentration 48.78 µM, read-out: Mean (MMP-2 dose-response, Supplementary fig 15)): 70.5%; remaining activity at 243.8 µM [16]: 41.9%; remaining activity at 243.9 µM (MMP-2, concentration 243.90 µM, read-out: Mean (MMP-2 dose-response, Supplementary fig 15)): 41.9%; remaining activity at 1219.51 µM (MMP-2, concentration 1219.51 µM, read-out: Mean (MMP-2 dose-response, Supplementary fig 15)): 5.76%
101 | 93.4 | 108 | 92.2 | 105 | 96.9 | 87.8 | 57.1 | 101 | 93.5 | 108 | 92.2 | 105 | 96.9 | 87.8 | 57.1 | 93.5 |  | 101 | NCc1c[nH]nn1 [Compound 787] |  | remaining activity at 0.0156 µM (MMP-2, concentration 0.0156 µM, read-out: Mean (MMP-2, Supplementary fig 16)): 101%; remaining activity at 0.39 µM (MMP-2, concentration 0.39 µM, read-out: Mean (MMP-2, Supplementary fig 16)): 108%; remaining activity at 1.95 µM (MMP-2, concentration 1.95 µM, read-out: Mean (MMP-2, Supplementary fig 16)): 92.2%; remaining activity at 9.76 µM (MMP-2, concentration 9.76 µM, read-out: Mean (MMP-2, Supplementary fig 16)): 105%; remaining activity at 48.78 µM (MMP-2, concentration 48.78 µM, read-out: Mean (MMP-2, Supplementary fig 16)): 96.9%; remaining activity at 243.9 µM (MMP-2, concentration 243.90 µM, read-out: Mean (MMP-2, Supplementary fig 16)): 87.8%; remaining activity at 0.08 µM [13]: 93.5%; remaining activity at 0.39 µM [14]: 108%; remaining activity at 1.95 µM [15]: 92.2%; remaining activity at 9.75 µM [16]: 105%; remaining activity at 48.76 µM [16]: 96.9%; remaining activity at 243.8 µM [16]: 87.8%
